What is called melting point is the temperature, or range, at which the solid turns liquid.

Read-outs that look alike come from different tables or passages of the source.

Experimental findings from patent US20230017045A1, “PYRIDINE AND PYRIMIDINE CARBOXYLATE HERBICIDES AND METHODS OF USE THEREOF” (Dow AgroSciences LLC, priority 2017, published 2023) are described below.

One series deals with test plant species. The series can be described thus: Post-emergent herbicidal activity test (greenhouse, foliar spray, visual growth reduction). The format is in vivo. Particulars: post-emergence, 336 h, 140 g ai/ha. A digest of the protocol:
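Visual percent injury (0-100) rated 14 d after treatment, relative to nontreated and solvent-blank plants. Test plants at first or second true leaf stage received an overhead track-sprayer application at 187 L/ha. Compounds were formulated in aqueous acetone/DMSO carrier containing crop oil concentrate and X-77 surfactant.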

The mark [1] stands for this setting: ECHCG: barnyardgrass (Echinochloa crus-galli), 14 days after application, read-out: Visual Growth Reduction (%) 14 Days After Application, ECHCG.
The mark [2] stands for this setting: IPOHE: ivy-leaf morning glory (Ipomoea hederacea), 14 days after application, read-out: Visual Growth Reduction (%) 14 Days After Application, IPOHE.
The mark [3] stands for this setting: KCHSC: kochia (Bassia scoparia), 14 days after application, read-out: Visual Growth Reduction (%) 14 Days After Application, KCHSC.
[4] abbreviates: ORYSA: rice (Oryza sativa), 14 days after application, read-out: Visual Growth Reduction (%) 14 Days After Application, ORYSA.
[5] abbreviates: SETFA: giant foxtail (Setaria faberi), 14 days after application, read-out: Visual Growth Reduction (%) 14 Days After Application, SETFA.
[6] abbreviates: SORVU: grain sorghum (Sorghum vulgare), 14 days after application, read-out: Visual Growth Reduction (%) 14 Days After Application, SORVU.
Setting [7] is: STEME: common chickweed (Stellaria media), 14 days after application, read-out: Visual Growth Reduction (%) 14 Days After Application, STEME.
Where [8] appears, read: TRZAS: wheat, spring (Triticum aestivum), 14 days after application, read-out: Visual Growth Reduction (%) 14 Days After Application, TRZAS.
The mark [9] stands for this setting: blackgrass (Alopecurus myosuroides), 14 Days After Application, read-out: Visual Growth Reduction (%) ALOMY.
[10] abbreviates: canada thistle (Cirsium arvense), 14 Days After Application, read-out: Visual Growth Reduction (%) CIRAR.
[11] abbreviates: crabgrass (Digitaria sanguinalis), 14 Days After Application, read-out: Visual Growth Reduction (%) DIGSA.
Where [12] appears, read: lambsquarters (Chenopodium album), 14 Days After Application, read-out: Visual Growth Reduction (%) CHEAL.
The mark [13] stands for this setting: redroot pigweed (Amaranthus retroflexus), 14 Days After Application, read-out: Visual Growth Reduction (%) AMARE.
The mark [14] stands for this setting: wild oat (Avena fatua), 14 Days After Application, read-out: Visual Growth Reduction (%) AVEFA.
The mark [15] stands for this setting: yellow nutsedge (Cyperus esculentus), 14 Days After Application, read-out: Visual Growth Reduction (%) CYPES.

`COc1ncc(Cl)cc1-c1ccc(Cl)c(C(=O)O)n1` [F134, 5,5′-Dichloro-2′-methoxy-[2,3′-bipyridine]-6-carboxylic acid]: the melting point was 155.2 to 163.3 °C. The pest or weed control at 140 g/ha in the series on test plant species (ALOMY: blackgrass (Alopecurus myosuroides), 14 days after application, read-out: Visual Growth Reduction (%) 14 Days After Application, ALOMY) is 0 to 29%. In addition, in the series with test plant species (AMARE: redroot pigweed (Amaranthus retroflexus), 14 days after application, read-out: Visual Growth Reduction (%) 14 Days After Application, AMARE), the pest or weed control at 140 g/ha lay within 0 to 29%. The pest or weed control at 140 g/ha in the series with test plant species (AVEFA: wild oat (Avena fatua), 14 days after application, read-out: Visual Growth Reduction (%) 14 Days After Application, AVEFA) was in the range of 0 to 29%. Moreover, the pest or weed control at 140 g/ha in the series on test plant species (CHEAL: lambsquarters (Chenopodium album), 14 days after application, read-out: Visual Growth Reduction (%) 14 Days After Application, CHEAL) lay within 0 to 29%. The pest or weed control at 140 g/ha with test plant species (CIRAR: canada thistle (Cirsium arvense), 14 days after application, read-out: Visual Growth Reduction (%) 14 Days After Application, CIRAR) was in the range of 0 to 29%. Besides, the pest or weed control at 140 g/ha with test plant species (CYPES: yellow nutsedge (Cyperus esculentus), 14 days after application, read-out: Visual Growth Reduction (%) 14 Days After Application, CYPES) was 0 to 29%. In addition, the pest or weed control at 140 g/ha in the series with test plant species (DIGSA: crabgrass (Digitaria sanguinalis), 14 days after application, read-out: Visual Growth Reduction (%) 14 Days After Application, DIGSA) fell in the range of 0 to 29%. The pest or weed control at 140 g/ha with test plant species (setting [1]) is 0 to 29%. The pest or weed control at 140 g/ha in the series on test plant species (setting [2]) was 0 to 29%. The pest or weed control at 140 g/ha in the series with test plant species (setting [3]) lay in the range of 0 to 29%. For the same compound, in the series with test plant species (setting [4]), the pest or weed control at 140 g/ha was in the range of 0 to 29%. In the series with test plant species (setting [5]), the pest or weed control at 140 g/ha was in the range of 0 to 29%. The pest or weed control at 140 g/ha with test plant species (setting [6]) lay in the range of 0 to 29%. Also, the pest or weed control at 140 g/ha in the series on test plant species (setting [7]) lay in the range of 0 to 29%. Besides, the pest or weed control at 140 g/ha in the series with test plant species (setting [8]) fell in the range of 0 to 29%.
The compound `COC(=O)c1nc(-c2ccc(C(F)(F)F)nc2F)c(F)cc1Cl` [F354, methyl 5-chloro-2′,3-difluoro-6′-(trifluoromethyl)-[2,3′-bipyridine]-6-carboxylate] showed a melting point of 84 to 86 °C. The pest or weed control at 140 g/ha in the series with test plant species (setting [1]) lay within 75 to 84%. The pest or weed control at 140 g/ha in the series with test plant species (setting [2]) was 95 to 100%. Besides, the pest or weed control at 140 g/ha in the series on test plant species (setting [3]) was 60 to 74%. Further, the pest or weed control at 140 g/ha in the series with test plant species (setting [4]) is 0 to 29%. The pest or weed control at 140 g/ha in the series on test plant species (setting [5]) lay in the range of 75 to 84%. For the same compound, the pest or weed control at 140 g/ha in the series with test plant species (setting [6]) was 85 to 94%. The pest or weed control at 140 g/ha in the series on test plant species (setting [7]) was in the range of 0 to 29%. The pest or weed control at 140 g/ha with test plant species (setting [8]) lay within 60 to 74%. In the series on test plant species (setting [9]), the pest or weed control at 140 g/ha fell in the range of 0 to 29%. Moreover, the pest or weed control at 140 g/ha in the series on test plant species (setting [10]) was in the range of 75 to 84%. Further, the pest or weed control at 140 g/ha in the series on test plant species (setting [11]) fell in the range of 85 to 94%. Further, the pest or weed control at 140 g/ha in the series on test plant species (setting [12]) was 75 to 84%. The pest or weed control at 140 g/ha in the series with test plant species (setting [13]) is 60 to 74%. Besides, the pest or weed control at 140 g/ha in the series on test plant species (setting [14]) lay within 30 to 44%. Besides, the pest or weed control at 140 g/ha in the series with test plant species (setting [15]) was 0 to 29%.
`COC(=O)c1nc(-c2ccc(S(C)(=O)=O)cc2F)c(F)cc1Cl` [F379, Methyl 3-chloro-5-fluoro-6-(2-fluoro-4-(methylsulfonyl)phenyl)picolinate] yielded a melting point of 179 to 181 °C. The pest or weed control at 140 g/ha with test plant species (setting [1]) lay in the range of 75 to 84%. Also, the pest or weed control at 140 g/ha in the series on test plant species (setting [2]) was 95 to 100%. Moreover, the pest or weed control at 140 g/ha with test plant species (setting [3]) lay in the range of 85 to 94%. Further, the pest or weed control at 140 g/ha in the series with test plant species (setting [4]) lay within 0 to 29%. Besides, the pest or weed control at 140 g/ha in the series with test plant species (setting [5]) lay within 75 to 84%. In the series on test plant species (setting [6]), the pest or weed control at 140 g/ha was in the range of 75 to 84%. The pest or weed control at 140 g/ha in the series on test plant species (setting [7]) was in the range of 0 to 29%. Moreover, in the series on test plant species (setting [8]), the pest or weed control at 140 g/ha is 60 to 74%. In addition, the pest or weed control at 140 g/ha in the series on test plant species (setting [9]) lay in the range of 0 to 29%. For the same compound, the pest or weed control at 140 g/ha in the series with test plant species (setting [10]) is 0 to 29%. In addition, the pest or weed control at 140 g/ha in the series with test plant species (setting [11]) lay within 60 to 74%. Moreover, in the series on test plant species (setting [12]), the pest or weed control at 140 g/ha lay within 60 to 74%. In addition, the pest or weed control at 140 g/ha in the series on test plant species (setting [13]) was 60 to 74%. Besides, the pest or weed control at 140 g/ha in the series with test plant species (setting [14]) fell in the range of 0 to 29%. Further, the pest or weed control at 140 g/ha in the series on test plant species (setting [15]) lay in the range of 0 to 29%.
